Measured values as given in patent publication US9023354B2, “Combination therapy with MDM2 and EFGR inhibitors” (priority 2010, dated 2015).
pEC50, pIC50: −log10 of the molar value. Read-outs that look alike come from different tables or passages of the source. Blank lines part the entries; values can stand above or below the molecule they belong to.

What was measured:
[1] = Stability toward liver microsome incubation; type: in vitro ADME
[2] = test system: apoptosis-related proteins in A549 cells; experiment: Proteome profile of apoptosis-related proteins; type: cell-based, human; details: 5 μM
Source text: This example describes an assay that measured the relative expression levels of 35 apoptosis-related proteins in a single sample of whole cell extract. Methods are according to Examples 1-2 unless otherwise specified.
The protocol and reagents were purchased from R&D systems (Human apoptosis array kit; cat. #ARY009). The kit consisted of an antibody array spotted on nitrocellulose membranes with each specific antibody printed in duplicate. The detection antibodies were biotinylated so they could be used with a streptavidin-HRP conjugate designed for chemiluminescent imaging. The protocol was modified to utilize the LiCor infrared imaging technology by substituting an infrared 680 nm-tagged streptavidin.
The following day, two μl of compound dilutions in 100% DMSO were added to the appropriate wells resulting in a final concentration of 5 μM. The plates were then incubated for 6 hours at 37° C., 5% CO2, and 85% relative humidity. Following incubation, the cells were washed with 2 ml of PBS, then lysed with 500 μl/well of Lysis buffer, supplemented with a 1/200 dilution of mammalian protease inhibitor cocktail (Sigma Aldrich). The plates were shaken for 30 min at room temperature, spun @ 14,000×g for 5 minutes. 250 μl of the supernatant was removed and added to 1.25 ml of Assay buffer 1. The supernatant and Assay buffer 1 were incubated with membranes overnight at room temperature with shaking.
The following day, the membranes were washed 3 times for 10 min each, with 1× wash buffer in individual 50 ml Falcon tubes at room temperature with rotation. The membranes were incubated with a 1/100 dilution of biotinylated detection antibodies for 3 hours at room temperature with shaking.
The membranes were washed, then incubated with a 1/1000 dilution of IR 680 nm-labeled streptavidin (LiCor) for 60 minutes with shaking in the dark. The membranes were again washed. Excess buffer was blotted from membranes, placed between two pieces of transparent plastic and imaged on the LiCor infrared imager. The LiCor Odyssey software is used to quantitate the pixel intensity of each spot in the array.
First, several compounds were evaluated in a proteome profiling array system containing antibodies to 35 apoptosis-related proteins. In this assay (see Example 3), the relative expression levels of these proteins in cell extracts are measured from treated and non-treated A549 cells.

[3] = test system: A549 cells; experiment: DNA fragmentation (Cell Death Detection ELISA), measurement of apoptosis; details: for activation at 1 µM / activation at 10 µM: Homo sapiens
Experimental: The plates were allowed to incubate overnight @ 37° C., 5% CO2. On day 2, the media was removed from the plates and 160 μl media containing 5% FBS was added. 40 μl of media-containing test compound in 100% DMSO (prepared at 5× the dosing concentration) was added to the existing media resulting in a final DMSO concentration of 0.5%. Cells were incubated in the presence of a compound for 24 hrs @ 37° C., 5% CO2.
After 24 hrs, the abovementioned plates were centrifuged at 200×g for 10 min. The media was removed by gently inverting the plate and disposing of the media onto a paper towel. The plates were tapped gently to remove excess media. 200 μl lysis buffer was added to each well, and mixed by shaking at 300 rpm. The plates were incubated at room temperature for 30 min. The plates were centrifuged at 200×g for 10 min and 20 μl of lysis supernatant was removed for use in ELISA analysis to detect cell death.
20 μl of the cell lysis supernatant was placed into streptavidin-coated plates with 20 μl positive control and 20 μl incubation buffer negative control. Add 80 μl Immunoreagent (for DNA fragment detection) to each well. The wells were covered with foil adhesive and shaken at 300 rpm for 2 h at room temperature. The supernatant solution was removed and the wells were washed 3 times with 300 μl incubation buffer. 100 μl of ABTS detection substrate was added to each well. The wells were incubated on a plate shaker at 250 rpm for approximately 10-20 min. 100 μl ABTS of stop buffer was then added. […] The absorbance measures the colored product spectrophotometrically, correlating with apoptosis.
The percent increase in DNA fragmentation produced by compounds at a concentration of 1 and 10 μM were compared to background, and to the response produced by 500 nM staurosporin.

[4] = test system: A431 cells; experiment: Caspase 3/7 activity, measurement of apoptosis; type: cell-based; details: 10 μM compared to 10 μM Tarceva
[5] = test system: A431 cells; experiment: A431 cell proliferation assay (MTT), alone and in combination with Tarceva; type: cell-based; details: for A431 Cell Proliferation CI Value: CI <0.8 indicates synergy
Experimental: This example describes an assay that measures the ability of compounds to inhibit the proliferation of cultured cells. This assay can also be used to assess whether combining two or more compounds produces additive, synergistic, or antagonistic effects on cell growth.
On day 1, the cells were seeded at 10^3 cells per well in 100 μl of complete media under standard conditions.
On day 2, the cells were washed and 100 μl serum free media was added. The cells were then incubated for at least 2 hours before the addition of compound(s). 20 μl of compound(s) was added to the respective wells and incubated at 37° C., 5% CO2 for 72 hrs.
On day 5, 50 μl of the MTT dye solution was added to each well. The plates were incubated at 37° C., 5% CO2 for 1 hr. The media was then aspirated and the cells were resuspended in […] of DMSO. The plates were allowed to incubate for 5 min at room temperature with gentle shaking.
The absorbance in each well was determined at 560 nm using a Polarstar plate reader.
The A431 cell line over-expresses the EGF receptor, and was utilized to assess the ability of AD4 compounds to inhibit EGF-mediated cell proliferation.

[6] = target: p53/MDM2 binding (Homo sapiens (Human), UniProt Q00987); experiment: AlphaScreen measurement of p53/MDM2 interaction (truncated GST-MDM2 aa 1-150)
Chain of p53/MDM2 binding (Q00987 1-150): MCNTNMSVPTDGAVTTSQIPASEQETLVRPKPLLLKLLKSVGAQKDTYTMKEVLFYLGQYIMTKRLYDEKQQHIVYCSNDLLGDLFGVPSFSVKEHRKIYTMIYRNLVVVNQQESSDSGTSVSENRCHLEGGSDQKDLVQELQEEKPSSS
Experimental: The following example describes an assay that measured the ability of compounds to inhibit the binding of p53 to MDM2 using the AlphaScreen assay technology (PerkinElmer). […] Recombinant, truncated, human, N-terminal GST-MDM2 (aa 1-150) was obtained from GeneScript. Wild-type, full length human N-terminal 6-his p53 was purchased from SignalChem.
Resulting in a final reaction volume of 24 μl PBS, 0.1% Tween-20, and 10% glycerol, 30 ng of MDM2 was added, followed by the addition of 10 of compound diluted in 100% DMSO that provided a final DMSO concentration of 4%. 30 ng of p53 was then added, mixed, and incubated at room temperature for 1 hour. Glutathione donor beads and Nickel acceptor beads (0.5 μg each; PerkinElmer) were added under subdued lighting conditions to a final reaction volume of 30 μl/well in a 96 well, ½ volume Proxima plate. The reaction was incubated at room temperature with shaking for 18 hrs in the dark. Analysis was then performed on a PerkinElmer EnSpire plate reader to determine the ability of compounds to inhibit the binding of p53 to MDM2.

[7] = test system: p53-induced reporter gene activity; experiment: p53 reporter gene assay in HEK293 cells; type: cell-based; details: 10 μM
Experimental: This example describes an assay that measures the ability of compounds to stimulate p53-induced reporter gene activity. In order for p53 activity to be observed, the interaction of p53 with MDM2 must be inhibited. Methods are according to Examples 1-5 unless otherwise specified.
HEK293 cells were transiently transfected with the inducible p53-responsive firefly luciferase reporter and constitutively-expressing Renilla construct. After 16 hrs of transfection at 37° C., 5% CO2, the transfection media was removed and 200 μl/well of assay media was added. The cells were then incubated for 8 hrs at 37° C., 5% CO2.
[…] of compound(s) was added to the cells and incubated for 16 hrs at 37° C. and 5% CO2. The cells were carefully washed with 200 μl of PBS. 20 μl_of lysis buffer was then added to each well and incubated at room temperature for 15 minutes with shaking.
The lysis buffer supernatant was transferred to a white/opaque CoStar 96-well plate and 100 μl of firefly luceriferase assay substrate was added. The luminescence in each well was determined using a Polarstar plate reader.
100 μl of Stop and Glow reagent was added to each well, mixed, and the luminescence generated by the Renilla luciferase was determined using a Polarstar plate reader. The Renilla signal was used to normalize the transfection efficiency and cell viability.

[8] = target: p53/MDM2 binding (full length MDM2) (Homo sapiens (Human), UniProt Q00987); experiment: AlphaScreen p53/MDM2 binding with full length GST-MDM2; details: FIG. 1, read-out: inhibition of p53/MDM2 binding EC50
Chain of p53/MDM2 binding (full length MDM2) (Q00987 whole entry): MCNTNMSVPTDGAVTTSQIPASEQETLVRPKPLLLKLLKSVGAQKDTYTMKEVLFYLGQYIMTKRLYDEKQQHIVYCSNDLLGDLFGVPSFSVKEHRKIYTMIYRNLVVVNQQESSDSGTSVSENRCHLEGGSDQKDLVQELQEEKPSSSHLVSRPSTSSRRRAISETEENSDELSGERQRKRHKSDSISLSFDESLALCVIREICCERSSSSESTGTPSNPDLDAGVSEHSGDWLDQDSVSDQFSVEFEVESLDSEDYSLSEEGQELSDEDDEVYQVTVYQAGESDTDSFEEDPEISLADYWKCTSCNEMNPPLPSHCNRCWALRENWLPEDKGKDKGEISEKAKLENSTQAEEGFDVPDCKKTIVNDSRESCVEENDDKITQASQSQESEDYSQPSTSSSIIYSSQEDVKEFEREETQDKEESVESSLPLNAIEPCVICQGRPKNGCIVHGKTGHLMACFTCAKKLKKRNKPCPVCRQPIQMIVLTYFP

[9] = test system: p53 and phospho-p53 (S15) in A549 NSCLC cells; experiment: p53 In-Cell Western; type: cell-based, human; details: about 1-3 μM
[10] = A549, read-out: % Inc. Relative to Staurosporin (500 nM), DNA fragmentation
[11] = A549, read-out: % Inc. over Background, DNA fragmentation
[12] = A431 cells, further studies, Example 9, Table 7A, read-out: A431 Cell Proliferation (IC50 Value)
[13] = combination with Tarceva, Example 8, Table 6B
[14] = combination with Tarceva, Example 9, Table 7B
[15] = Table 7C, read-out: p53/MDM2 IC50 Value
[16] = Table 9, read-out: Inhibition of p53/MDM2 Binding IC50 Value
[17] = Homo sapiens, A-431, A431 cells, further studies, Example 9, Table 7A, read-out: A431 Cell Proliferation (IC50 Value)

SMILES: Oc1c(C(Nc2ncc(C(F)(F)F)cc2F)c2ccc(Cl)cc2Cl)ccc2cccnc12 (stereo not drawn) [AD4-13165]
stability (toward liver microsome incubation) [1]: increased stability
phosphorylated forms of p53 [2]: increased all three phosphorylated forms of p53
activation at 1 µM [3, 10]: 24%
activation at 10 µM [3, 10]: 74%
activation at 1 µM [3, 11]: 172%
activation at 10 µM [3, 11]: 582%

SMILES: Oc1c(C(Nc2cc(Cl)c(Cl)cn2)c2ccc(Cl)cc2Cl)ccc2cccnc12 (stereo not drawn) [AD4-13178]
phosphorylated forms of p53 [2]: increased all three phosphorylated forms of p53
activation at 10 µM [3, 10]: 68%
activation at 1 µM [3, 11]: 395%
activation at 10 µM [3, 11]: 581%

SMILES: Cc1cc(Cl)cnc1NC(c1ccc(Cl)c(F)c1)c1ccc2cccnc2c1O (stereo not drawn) [AD4-13229]
phosphorylated forms of p53 [2]: increased all three phosphorylated forms of p53
activation at 1 µM [3, 10]: 68%
activation at 10 µM [3, 10]: 84%
activation at 1 µM [3, 11]: 531%
activation at 10 µM [3, 11]: 667%

SMILES: CCOc1ccc(C(Nc2ccccn2)c2cc(Cl)c3cccnc3c2O)cc1 (stereo not drawn) [AD4-10953]
stimulation of p53 reporter gene activity [7]: 9.7 fold

Continued, in another order:

pIC50 [5, 12]: 5.44
pIC50 ([5]; A431 cells, preliminary assessment, Example 8, Table 6A, read-out: A431 Cell Proliferation (IC50)): 5.44
pIC50 [6, 15]: 4.74
pIC50 [6, 16]: 4.74
SMILES: Oc1c(C(Nc2ccccn2)c2ccccc2Cl)ccc2cccnc12 (stereo not drawn) [AD4-10482]
Caspase 3/7 activity % Increase Relative to Tarceva [4]: 21%
A431 Cell Proliferation CI Value [5, 13]: 0.54
A431 Cell Proliferation CI Value [5, 14]: 0.89

pIC50 [5, 17]: 5.59
pIC50 [6, 15]: 5.04
pIC50 [6, 16]: 5.04
SMILES: Cc1ccnc(NC(c2ccccc2Cl)c2ccc3cccnc3c2O)c1 (stereo not drawn) [AD4-12907]
A431 Cell Proliferation CI Value [5, 14]: 0.71

pEC50 [8]: 6.57
pIC50 [5, 17]: 5.43
pIC50 ([5]; Homo sapiens, A-431, A431 cells, preliminary assessment, Example 8, Table 6A, read-out: A431 Cell Proliferation (IC50)): 5.43
pIC50 [6, 15]: 5.44
pIC50 [6, 16]: 5.38
SMILES: COc1ccc(C(Nc2cc(C)ccn2)c2ccc3cccnc3c2O)cc1O (stereo not drawn) [AD4-1505]
Caspase 3/7 activity % Increase Relative to Tarceva [4]: 45%
stimulation of p53 reporter gene activity [7]: 42.5 fold
synergistic effects with Tarceva in A431 cell proliferation (in words) ([5]; combination with Tarceva): produced the greatest effects
A431 Cell Proliferation CI Value [5, 13]: 0.45
A431 Cell Proliferation CI Value [5, 14]: 0.29

pIC50 [5, 12]: 5.66
SMILES: Cc1cc(Cl)cnc1NC(c1ccc2cccnc2c1O)c1c(F)c(F)c(OCC(F)(F)F)c(F)c1F (stereo not drawn) [AD4-13243]
phosphorylated forms of p53 [2]: increased all three phosphorylated forms of p53
DNA fragmentation / apoptosis (in words) ([3]; A549 cells): increased DNA fragmentation
% Inc. over Background, DNA fragmentation ([3]; A549 cells, 1 μM): 551%
% Inc. over Background, DNA fragmentation ([3]; A549 cells, 10 μM): 716%
S15p-p53 (phosphorylated S15 p53) [9]: significantly increased
total p53 expression [9]: significantly increased

stability (toward liver microsome incubation) [1]: increased stability
SMILES: Cc1nc(NC(c2ccc(Cl)cc2Cl)c2ccc3cccnc3c2O)c(Cl)cc1Cl (stereo not drawn) [AD4-13206]
